Data from patent US4216164A, “Ureide inhibitors of connective tissue destruction” (American Cyanamid Company, priority 1978, dated 1980).
Several values for one entry are separate records, joined by “and”; a condition that tells them apart may be missing. Identical values can stand only once. Counter-ions that a name gives are not always drawn.

Key:
[1] = molecular target: T1, Gingival Crevicular Fluid Collagenase (Homo sapiens, UniProt P22894); test: Crevicular Fluid Assay; format: biochemical; conditions: diseased crevicular fluid + 30 mcg./ml. compound; control 66 ± 9; p<0.0005
T1 construct: from tissue; host or cells: gingival crevicular fluid of a volunteer with periodontal disease
Text: (§1) An active inhibitor would inhibit the degradation of the collagen fibril; (iii) Leukocyte Neutral Proteases Inhibitor Assay--This test measures the ability of neutral proteases derived from human leukocytes to degrade radiolabeled proteoglycans entrapped in polyacrylamide beads.
(ii) Crevicular Fluid Assay
Effect of Test Compounds on Gingival Crevicular Fluid Collagenase
Since studes by Golub, et al., Dental Res., 55, 1049 (1976) have shown that the crevicular collagenase plays a major role in the degradation of collagen in periodontal tissue, the effect of test compounds on collagen degradation by this system was examined. A volunteer with diagnosed periodontal disease was used. […] After one minute, the filter paper strip was removed and the volume of the gingival crevicular fluid was measured with the aid of the Periotron (Harco Electronics, Ltd., Winnipeg, Canada). The volume of the fluid gathered from the crevice by the filter paper strip is translated by a unique transducer onto a digital readout screen. […] After reading on the meter, 1 μl. of trypsin (1.5 μg./ml.) was added to the filter paper (to activate any latent collagenase present) and after five minutes at room temperature 1 μl. of aprotinin was added. […] The tubes were centrifuged as described above and a 200 μl. aliquot of the clear supernatant was assayed for radioactivity.

[2] = tested on: neutral proteases derived from human leukocytes; test: Leukocyte Neutral Proteases Inhibitor Assay; format: biochemical; conditions: for Percent Inhibition of Neutral Protease Activity ^3 H: ^3 H label; for Percent Inhibition of Neutral Protease Activity ^35 S: ^35 S label
Protocol: as §1
(iii) Leukocyte Neutral Proteases Inhibitor Assay
Assays of Leukocyte Neutral Proteases Using ^3 H/^35 S Labeled Proteoglycans
This assay system contained (total volume of 1 ml.) 60 mM Tris-Cl, pH 7.4; 2.5 mM calcium chloride; 2.5 mM magnesium chloride; 2 mg. (dry weight) of polyacrylamide beads entrapped with labeled proteoglycans, and an aliquot of the leukocyte neutral protease preparation. The reaction mixture was incubated at 37° C. for 30 minutes in a shaking water bath. The reaction was terminated by the addition of 0.2 ml. of 5% HCl (v/v). After five minutes at room temperature, the mixture was centrifuged and the clear supernatant (0.6 ml.) was assayed for radioactivity. To determine the effect of the test compounds on degradation of proteoglycans by neutral proteases, various concentrations of the compounds were added to the reaction mixture. Appropriate blanks were included.

[3] = tested on: fibroblast collagenase and leukocyte neutral protease; test: Enzymatic Degradation of Collagen of Human Gingiva; format: biochemical; conditions: 37° C., 36 hours, control 102.3
Protocol: The test compounds are able to inhibit the degradation of collagen of gingival tissue. Dried pieces of human gingiva were incubated at 37° C. for 36 hours with fibroblast collagenase and leukocyte neutral protease in the presence of test compound (30 and 50 μg./ml.). Antibiotics were present to prevent bacterial growth. After incubation, the residual tissue was hydrolyzed in 6 N hydrochloric acid and the hydroxyproline content (collagen) was determined. When collagenase and neutral protease were added to human gingiva, approximately 100 μg of collagen/mg. dry tissue was digested. If the test compound was present, degradation of gingival collagen was inhibited.

[4] = molecular target: T2, human skin fibroblast collagenase (Homo sapiens, UniProt P03956); test: Collagenase Assay, Test Code 006; format: biochemical; conditions: test conc.: 30 μg./ml.
T2 construct: endogenous in cells; host or cells: human skin fibroblasts
T2 sequence (P03956 100-469): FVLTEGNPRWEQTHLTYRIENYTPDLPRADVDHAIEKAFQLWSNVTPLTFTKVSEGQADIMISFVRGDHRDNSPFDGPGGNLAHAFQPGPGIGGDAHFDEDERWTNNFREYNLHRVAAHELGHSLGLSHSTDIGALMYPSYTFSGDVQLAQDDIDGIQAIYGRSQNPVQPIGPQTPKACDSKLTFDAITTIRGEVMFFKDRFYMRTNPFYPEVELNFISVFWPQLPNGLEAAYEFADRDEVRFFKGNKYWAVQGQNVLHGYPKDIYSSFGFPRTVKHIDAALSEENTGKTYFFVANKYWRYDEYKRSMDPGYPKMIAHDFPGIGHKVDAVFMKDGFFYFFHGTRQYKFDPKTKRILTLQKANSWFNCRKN
Protocol: (i) Collagenase Assay--Test Code 006
In a typical assay (total volume of 0.45 ml.), 100 μl. of the activated enzyme was added to the ^14 C-labeled collagen fibrils (250 μl.) followed by 100 μl. of 50 mM cacodylate, pH 7.4, containing 5 mM calcium chloride. After incubation at 37° C. for 16 hours, the tubes were centrifuged in a Beckman microfuge for five minutes at full speed. An aliquot (200 μl.) of the supernatant, representing collagenase digestion products of the fibril, was assayed for radioactivity. The effect of the test compound on collagen degradation by collagenase was examined as follows:
Appropriate blanks and trypsin controls were run in parallel.

corneal ulcerations = conditions: alkali burned rabbit; directly applied to corneal ulcerations; cited from earlier work
collagenase = conditions: Thromb. Res. 1977, 10(4), 605-11; cited from earlier work
corneal ulceration = conditions: human; cited from earlier work

T1 sequence (P22894 101-467): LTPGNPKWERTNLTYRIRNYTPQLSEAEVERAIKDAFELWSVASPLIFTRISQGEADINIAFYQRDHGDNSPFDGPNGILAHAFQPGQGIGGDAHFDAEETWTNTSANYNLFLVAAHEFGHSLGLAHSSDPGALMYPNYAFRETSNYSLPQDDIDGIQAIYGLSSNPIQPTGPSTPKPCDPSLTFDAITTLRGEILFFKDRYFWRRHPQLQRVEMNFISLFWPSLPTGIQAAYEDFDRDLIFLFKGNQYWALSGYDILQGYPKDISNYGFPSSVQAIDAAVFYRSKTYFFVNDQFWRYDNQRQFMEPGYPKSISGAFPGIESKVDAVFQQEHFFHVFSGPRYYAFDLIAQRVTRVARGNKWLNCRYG

Question: For O=C(Nc1cccc(C(=O)Nc2ccc3cc(S(=O)(=O)O)cc(O)c3c2)c1)Nc1cccc(C(=O)Nc2ccc3cc(S(=O)(=O)O)cc(O)c3c2)c1 [6,6'-[Ureylenebis(3,1-phenylenecarbonylimino)]bis[4-hydroxy-] [6,6'-[Ureylenebis(m-phenylenecarbonylimino)]bis[4-hydroxy-2-naphthalenesulfonic acid]disodium salt], which “cpm Collagen Degraded/Unit Periotron Reading” value [1] is on record?
Answer: 16 ± 6 cpm

Question: And the “Percent Inhibition of Neutral Protease Activity ^3 H” value ([2]; 0.5 mcg./ml.)?
Answer: 0%

Question: And the “Percent Inhibition of Neutral Protease Activity ^35 S” value ([2]; 0.5 mcg./ml.)?
Answer: 0%

Question: What about the “Percent Inhibition of Neutral Protease Activity ^3 H” value ([2]; 1.0 mcg./ml.) of the same molecule?
Answer: 17%

Question: And the “Percent Inhibition of Neutral Protease Activity ^35 S” value ([2]; 1.0 mcg./ml.)?
Answer: 31%

Question: What about the “Percent Inhibition of Neutral Protease Activity ^3 H” value ([2]; 2.0 mcg./ml.) of the same molecule?
Answer: 21%

Question: What about the “Percent Inhibition of Neutral Protease Activity ^35 S” value ([2]; 2.0 mcg./ml.) of the same molecule?
Answer: 37%

Question: And the “Percent Inhibition of Neutral Protease Activity ^3 H” value ([2]; 5.0 mcg./ml.)?
Answer: 47%

Question: What about the “Percent Inhibition of Neutral Protease Activity ^35 S” value ([2]; 5.0 mcg./ml.) of the same molecule?
Answer: 74%

Question: And the “Percent Inhibition of Neutral Protease Activity ^3 H” value ([2]; 10.0 mcg./ml.)?
Answer: 63%

Question: And the “Percent Inhibition of Neutral Protease Activity ^35 S” value ([2]; 10.0 mcg./ml.)?
Answer: 91%

Question: And the “mcg. of Collagen degraded per mg. of dry gingiva” value ([3]; neutral proteases plus 30 mcg./ml. compound)?
Answer: 60.4 mcg. per mg.

Question: What about the “mcg. of Collagen degraded per mg. of dry gingiva” value ([3]; neutral proteases plus 50 mcg./ml. compound) of the same molecule?
Answer: 27.4 mcg. per mg.

Question: With O=C(Nc1cccc(C(=O)Nc2ccc3cc(S(=O)(=O)O)cc(O)c3c2)c1)Nc1cccc(C(=O)Nc2ccc3cc(S(=O)(=O)O)cc(O)c3c2)c1 [6,6'-[Ureylenebis(3,1-phenylenecarbonylimino)]bis[4-hydroxy-] [6,6'-[Ureylenebis(m-phenylenecarbonylimino)]bis[4-hydroxy-2-naphthalenesulfonic acid]tetrasodium salt] as the molecule, how does the “% Inhibition of Collagenase” value [4] read?
Answer: 82% and 81%

Question: With O=C(Nc1cccc(C(=O)Nc2ccc3cc(S(=O)(=O)O)cc(O)c3c2)c1)Nc1cccc(C(=O)Nc2ccc3cc(S(=O)(=O)O)cc(O)c3c2)c1 [6,6'-[Ureylenebis(m-phenylenecarbonylimino)]bis[4-hydroxy-2-naphthalenesulfonic acid]disodium salt] as the molecule, how does the inhibition at 30 µg/mL [4] read?
Answer: 82%

Question: For O=C(Nc1ccc(C(=O)Nc2ccc3cc(S(=O)(=O)O)cc(O)c3c2)cc1)Nc1ccc(C(=O)Nc2ccc3cc(S(=O)(=O)O)cc(O)c3c2)cc1 [6,6'-[Ureylenebis(p-phenylenecarbonylimino)]bis[4-hydroxy-2-naphthalenesulfonic acid]tetrasodium salt], which inhibition at 30 µg/mL [4] is on record?
Answer: 95%

Question: With O=C([O-])CN(CCN(CC(=O)[O-])CC(=O)[O-])CC(=O)[O-].[Ca+2].[Ca+2] [Calcium ethylenediaminetetraacetate] as the molecule, how does the frequency of ulceration (corneal ulcerations) read?
Answer: reduce the frequency of ulceration

Question: With Cc1ccc(C(=O)Nc2ccc(S(=O)(=O)O)c3cc(S(=O)(=O)O)cc(S(=O)(=O)O)c23)cc1NC(=O)c1cccc(NC(=O)Nc2cccc(C(=O)Nc3cc(C(=O)Nc4ccc(S(=O)(=O)O)c5cc(S(=O)(=O)O)cc(S(=O)(=O)O)c45)ccc3C)c2)c1 [Suramin] as the molecule, how does the “inhibition of the activity of collagenase” value (collagenase) read?
Answer: not inhibiting the action of collagenase

Question: With CC(=O)N[C@@H](CS)C(=O)O [acetylcysteine] as the molecule, how does the frequency of ulceration (corneal ulcerations) read?
Answer: reduce the frequency of ulceration

Question: What about the “treatment of acute and chronic corneal ulceration” value (corneal ulceration) of the same molecule?
Answer: effective

Question: For N[C@@H](CS)C(=O)O [cysteine], which “treatment of acute and chronic corneal ulceration” value (corneal ulceration) is on record?
Answer: effective

Question: With Cc1cc(-c2ccc(/N=N/c3c(S(=O)(=O)O)cc4cc(S(=O)(=O)O)cc(N)c4c3O)c(C)c2)ccc1/N=N/c1c(S(=O)(=O)O)cc2cc(S(=O)(=O)O)cc(N)c2c1O [trypan blue] as the molecule, how does the “inhibition of the activity of collagenase” value (collagenase) read?
Answer: inhibiting the activity of collagenase
